From patent publication US20060240048A1 (priority 2002, published 2006) come the findings set out here.

As usually defined, the EC50 is the concentration at which the effect is half-maximal. Higher therefore signals weaker potency. One may read the Emax as the size of the effect at its maximum, as opposed to the concentration needed.

Structures are written as SMILES. Bounds are passed on as bounds.

The target in the assay is T1, human cannabinoid CB2 receptor (Homo sapiens, UniProt P34972).
T1 construct: expressed in transfected cells; host or cells: Saccharomyces cerevisiae strain MMY23
Nature of the assay: Cannabinoid CB2 receptor agonist activity, yeast reporter assay (FDGlu fluorescence).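 On Emax: 100% equals maximal response of reference agonist HU210.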 It is filed as cell-based. The settings on record: for Emax: read-out: efficacy value (Emax) at the cloned human cannabinoid CB2 receptor. How it is done: The cannabinoid CB2 receptor agonist activity of the compounds of formula (I) was determined in accordance with the following experimental method.
Yeast (Saccharomyces cerevisiae) cells expressing the human cannabinoid CB2 receptor were generated by integration of an expression cassette into the ura3 chromosomal locus of yeast strain MMY23. This cassette consisted of DNA sequence encoding the human CB2 receptor flanked by the yeast GPD promoter to the 5′ end of CB2 and a yeast transcriptional terminator sequence to the 3′ end of CB2. MMY23 expresses a yeast/mammalian chimeric G-protein alpha subunit in which the C-terminal 5 amino acids of Gpa1 are replaced with the C-terminal 5 amino acids of human Gαi3 (as described in Brown et al. (2000), Yeast 16:11-22). Cells were grown at 30° C. in liquid Synthetic Complete (SC) yeast media (Guthrie and Fink (1991), Methods in Enzymology, Vol. 194) lacking uracil, tryptophan, adenine and leucine to late logarithmic phase (approximately 6 OD600/ml).
Agonists were prepared as 10 mM stocks in DMSO. […] Agonist solutions in DMSO (1% final assay volume) were transferred into black, clear bottom, microtitre plates from NUNC (96- or 384-well). […] This mixture (50 ul per well for 384-well plates, 200 ul per well for 96-well plates) was added to agonist in the assay plates (Multidrop 384, Labsystems). After incubation at 30° C. for 24 hours, fluorescence resulting from degradation of FDGlu to fluorescein due to exoglucanase, an endogenous yeast enzyme produced during agonist-stimulated cell growth, was determined using a Spectrofluor microtitre plate reader (Tecan; excitation wavelength: 485 nm; emission wavelength: 535 nm). Fluorescence was plotted against compound concentration and iteratively curve fitted using a four parameter fit to generate a concentration effect value.
where Max[compound X] and Min[compound X] are the fitted maximum and minimum respectively from the concentration effect curve for compound X, and Max[HU210] and Min[HU210] are the fitted maximum and minimum respectively from the concentration effect curve for (6aR,10aR)-3-(1,1′-Dimethylheptyl)-6a,7,10,10a-tetrahydro-1-hydroxy-6,6-dimethyl-6H-dibenzo[b,d]pyran-9-methanol (HU210; available from Tocris). Equieffective molar ratio (EMR) values were calculated from the equation EMR=EC50 [compound X]/EC50 [HU210]
Where EC50 [compound X] is the EC50 of compound X and EC50 [HU210] is the EC50 of HU210.

T1 sequence (P34972 whole entry): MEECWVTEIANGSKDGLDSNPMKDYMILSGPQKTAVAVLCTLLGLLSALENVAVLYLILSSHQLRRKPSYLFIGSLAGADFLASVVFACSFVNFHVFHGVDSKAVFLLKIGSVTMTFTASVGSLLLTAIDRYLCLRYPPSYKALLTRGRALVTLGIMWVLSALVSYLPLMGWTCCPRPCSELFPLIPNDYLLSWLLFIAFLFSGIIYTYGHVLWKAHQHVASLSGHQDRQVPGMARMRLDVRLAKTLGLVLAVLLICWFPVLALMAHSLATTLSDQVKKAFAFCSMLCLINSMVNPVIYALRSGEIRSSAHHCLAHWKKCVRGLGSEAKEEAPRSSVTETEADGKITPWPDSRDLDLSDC

For the molecule `CC(C)c1cc(Nc2ccc(F)cc2F)ncc1C(=O)NCC1CCC1` [Example 249, N-Cyclobutylmethyl-6-(2,4-difluoro-phenylamino)-4-isopropyl-nicotinamide], the EC50 was < 0.3 µM and the Emax is > 50%. For `CC(C)c1cc(Nc2ccc(Cl)cc2Cl)ncc1C(=O)NCC1CCCCC1` [Example 5, N-Cyclohexylmethyl-6-(2,4-dichloro-phenylamino)-4-isopropyl-nicotinamide], in that order: < 0.3 µM and > 50%. For `CC(C)c1cc(Nc2ccc(C#N)c(Cl)c2)ncc1C(=O)NCC1CCOCC1` [Example 79, 6-(3-Chloro-4-cyano-phenylamino)-4-isopropyl-N-(tetrahydro-pyran-4-ylmethyl) nicotinamide], the maximal response (Emax) was > 50%. With `O=C(NCC1CCC1)c1cnc(Nc2ccc(F)cc2Cl)cc1C(F)(F)F` [Example 163, N-Cyclobutylmethyl-6-(2-Chloro-4-fluoro-phenyl-amino)-4-trifluoromethyl-nicotinamide], the 50% effective concentration (EC50) is < 0.3 µM and the maximum response (Emax) was > 50%.

For the molecule `CC(C)c1cc(Nc2ccc(C#N)c(C(F)(F)F)c2)ncc1C(=O)NCC1CCOCC1` [Example 96, 6-(4-Cyano-3-trifluoromethyl-phenylamino)-4-isopropyl-N-(tetrahydro-pyran-4-ylmethyl)-nicotinamide], the Emax was > 50%. With `CC(C)CNC(=O)c1cnc(Nc2cc(F)cc(F)c2)cc1C(C)C` [Example 275, 6-(3,5-Difluoro-phenylamino)-N-isobutyl-4-isopropyl-nicotinamide], the concentration for a half-maximal effect (EC50) was < 0.3 µM and the maximal effect (Emax) was > 50%.

Turning to `CC(C)c1cc(Nc2cc(Cl)cc(Cl)c2)ncc1C(=O)NCC1CCOCC1` [Example 75, 6-(3,5-Dichloro-phenylamino)-4-isopropyl-N-(tetrahydro-pyran-4-ylmethyl)-nicotinamide], the concentration for a half-maximal effect (EC50) is < 0.3 µM and the maximal effect (Emax) is > 50%. Take `CC(C)c1cc(Nc2cccc(Cl)c2)ncc1C(=O)NCC1CCCCC1` [Example 2, 6-(3-Chlorophenylamino)-N-cyclohexylmethyl-4-isopropylnicotinamide]: the EC50 is < 0.3 µM and the maximal response (Emax) was > 50%.

Consider `CC(C)CNC(=O)c1cnc(Nc2ccc(Cl)cc2Cl)cc1C(F)(F)F` [Example 143, N-Isobutyl-6-(2,4-dichloro-phenylamino)-4-trifluoro-methyl-nicotinamide], for which the EC50 is < 0.3 µM and the maximal response (Emax) was > 50%. For `CC(C)CNC(=O)c1cnc(Nc2cccc(C(F)(F)F)c2F)cc1C(C)C` [Example 271, 6-(2-Fluoro-3-trifluoromethyl-phenylamino)-N-isobutyl-4-isopropyl-nicotinamide], in that order: < 0.3 µM and > 50%. Taken in the same sequence, the figures for `CC(C)c1cc(Nc2ccc(Cl)cc2Cl)ncc1C(=O)NCC1CCCC1` [Example 31] were < 0.3 µM and > 50%. For `O=C(NCC1CCCCCC1)c1cnc(Nc2ccc(Cl)cc2Cl)cc1C(F)(F)F` [Example 139, N-Cycloheptylmethyl-6-(2,4-dichloro-phenylamino)-4-tri-fluoromethyl-nicotinamide], in that order: < 0.3 µM and > 50%. Turning to `O=C(NCC1CCCC1)c1cnc(Nc2cc(Cl)cc(Cl)c2)cc1C(F)(F)F` [Example 149, N-Cyclopentylmethyl-6-(3,5-dichloro-phenylamino)-4-tri-fluoromethyl-nicotinamide], the EC50 was < 0.3 µM and the Emax is > 50%.

With `Cc1cc(Nc2cc(C(C)C)c(C(=O)NCC3CCOCC3)cn2)ccc1Br` [Example 86, 6-(4-Bromo-3-methyl-phenylamino)-4-isopropyl-N-(tetrahydro-pyran-4-ylmethyl)-nicotinamide], the 50% effective concentration (EC50) is < 0.3 µM and the Emax was > 50%. With `CC(C)CNC(=O)c1cnc(Nc2cc(Cl)cc(Cl)c2)cc1C(F)(F)F` [Example 151, N-Isobutyl-6-(3,5-dichloro-phenylamino)-4-trifluoro-methyl-nicotinamide], the EC50 is < 0.3 µM and the maximal response (Emax) is > 50%.

As to `CC(C)c1cc(Nc2cccc(C(F)(F)F)c2F)ncc1C(=O)NCC1CCCC1` [Example 245, 6-(2-Fluoro-3-trifluoromethyl-phenylamino)-N-cyclopentylmethyl-4-isopropyl-nicotinamide], the half-maximal effective concentration (EC50) is < 0.3 µM and the Emax was > 50%. In the case of `O=C(NCC1CCOCC1)c1cnc(Nc2ccc(Cl)c(Cl)c2)cc1C(F)(F)F` [Example 155, N-(Tetrahydropyran-4-yl-methyl)-6-(3,4-dichloro-phenylamino)-4-trifluoro-methyl-nicotinamide], the concentration for a half-maximal effect (EC50) is < 0.3 µM and the maximal effect (Emax) was > 50%. `Cc1cccc(Nc2cc(C(C)C)c(C(=O)NCC3CCOCC3)cn2)c1C#N` [Example 303, 6-(2-Cyano-3-methyl-phenylamino)-4-isopropyl-N-(tetrahydropyran-4-ylmethyl)-nicotinamide]: the Emax was > 50%. In the case of `Cc1c(Cl)cccc1Nc1cc(C(C)C)c(C(=O)NCC2CCOCC2)cn1` [Example 241, 6-(3-Chloro-2-methyl-phenylamino)-4-isopropyl-N-(tetrahydro-pyran-4-ylmethyl)-nicotinamide], the concentration giving a half-maximal response (EC50) is < 0.3 µM and the maximal response (Emax) was > 50%. As to `CC(C)c1cc(Nc2cccc(Cl)c2)ncc1C(=O)NCC1CCCC1` [Example 21, 6-[(3-Chloro-phenyl)amino]-N-(cyclopentylmethyl)-4-isopropyl-nicotinamide], the Emax is > 50%. Consider `CC(C)(C)c1cc(Nc2cccc(Cl)c2)ncc1C(=O)NCC1CCOCC1` [Example 71, 4-tert-Butyl-6-(3-phenylamino)-N-(tetrahydro-pyran-4-ylmethyl)-nicotinamide], for which the half-maximal effective concentration (EC50) was < 0.3 µM and the Emax was > 50%.

With `CC(C)c1nc(Nc2cccc(Cl)c2)ccc1C(=O)NCC1CCCC1` [Example 210, 6-(3-Chloro-phenylamino)-N-cyclopentylmethyl-2-isopropyl-nicotinamide], the half-maximal effective concentration (EC50) is < 0.3 µM and the Emax was > 50%. Taken in the same sequence, the figures for `CC(C)c1cc(Nc2ccc(OC(F)(F)F)cc2Br)ncc1C(=O)NCC1CCOCC1` [Example 240, 6-(2-Bromo-4-trifluoromethoxy-phenylamino)-4-isopropyl-N-(tetrahydro-pyran-4-ylmethyl)-nicotinamide] were < 0.3 µM and > 50%. Taken in the same sequence, the figures for `O=C(NCC1CCC1)c1cnc(Nc2ccc(Cl)cc2Cl)cc1C(F)(F)F` [Example 142, N-Cyclobutylmethyl-6-(2,4-dichloro-phenylamino)-4-tri-fluoromethyl-nicotinamide] were < 0.3 µM and > 50%. Turning to `O=C(NCC1CCOCC1)c1cnc(Nc2ccc(F)cc2Cl)cc1C(F)(F)F` [Example 165, N-(Tetrahydropyran-4-yl-methyl)-6-(2-chloro-4-fluoro-phenylamino)-4-trifluoro-methyl-nicotinamide], the EC50 was < 0.3 µM and the maximal response (Emax) was > 50%. For `O=C(NC1CCC1)c1cnc(Nc2cc(Cl)cc(Cl)c2)cc1C(F)(F)F` [Example 148, N-Cyclobutyl-6-(3,5-dichloro-phenylamino)-4-trifluoro-methyl-nicotinamide], in that order: < 0.3 µM and > 50%. On to `CC(C)CNC(=O)c1cnc(Nc2cccc(Cl)c2)cc1C(C)C` [Example 268, 6-(3-Chloro-phenylamino)-N-isobutyl-4-isopropyl-nicotinamide], for which the Emax is > 50%. As to `CC(C)c1cc(Nc2ccc(Cl)cc2Cl)ncc1C(=O)NCC1CCC1` [Example 250, N-Cyclobutylmethyl-6-(2,4-dichloro-phenylamino)-4-isopropyl-nicotinamide], the half-maximal effective concentration (EC50) was < 0.3 µM and the maximum response (Emax) was > 50%. As to `CC(C)c1cc(Nc2cc(Cl)ccc2F)ncc1C(=O)NCC1CCOCC1` [Example 76, 6-(5-Chloro-2-fluoro-phenylamino)-4-isopropyl-N-(tetrahydro-pyran-4-ylmethyl)-nicotinamide], the EC50 was < 0.3 µM and the maximal response (Emax) was > 50%. Taken in the same sequence, the figures for `CC(C)c1cc(Nc2cccc(C#N)c2)ncc1C(=O)NCC1CCCC1` [Example 28, 6-(3-Cyano-phenylamino)-N-cyclopentylmethyl-4-isopropyl-nicotinamide] were < 0.3 µM and > 50%.

With `O=C(NCC1CCC1)c1cnc(Nc2cccc(Br)c2)cc1C(F)(F)F` [Example 120, N-Cyclobutylmethyl-6-(3-bromo-phenylamino)-4-tri-fluoromethyl-nicotinamide], the EC50 was < 0.3 µM and the maximum response (Emax) is > 50%.
